Measurements from ChEMBL document CHEMBL4680378, “Discovery of a Lead Compound for Specific Inhibition of Type I Collagen Production in Fibrosis” (ACS Med Chem Lett, 2021).
Active and inactive are the calls of the source. The rule behind the calls is not given here.

Columns and labels:
Primary lung fibroblast [1] = assay: Inhibition of type 1 collagen alpha1 polypeptide secretion in human lung fibroblasts at 5 uM incubated for 18 hrs followed by addition of fresh medium and measured after 3 hrs by Western blot analysis; assay type: functional, tissue-based
[2] = Inhibition of type 1 collagen alpha1 polypeptide secretion in human lung fibroblasts incubated for 18 hrs followed by addition of fresh medium and measured after 3 hrs by Western blot analysis; assay type: functional, tissue-based; settings: Primary lung fibroblast
[3] = molecular target: La-related protein 6 (Homo sapiens) (UniProt Q9BRS8); assay: Inhibition of LARP6 La module (unknown origin) binding with collagen 5' stem loop mRNA assessed as decrease in La module monomer bound band intensity at 1 to 50 uM by gel mobility shift assay; settings: dose 1-50 µM
Chain of La-related protein 6 (Homo sapiens) (Q9BRS8 whole entry, looked up, the tested form may be a part): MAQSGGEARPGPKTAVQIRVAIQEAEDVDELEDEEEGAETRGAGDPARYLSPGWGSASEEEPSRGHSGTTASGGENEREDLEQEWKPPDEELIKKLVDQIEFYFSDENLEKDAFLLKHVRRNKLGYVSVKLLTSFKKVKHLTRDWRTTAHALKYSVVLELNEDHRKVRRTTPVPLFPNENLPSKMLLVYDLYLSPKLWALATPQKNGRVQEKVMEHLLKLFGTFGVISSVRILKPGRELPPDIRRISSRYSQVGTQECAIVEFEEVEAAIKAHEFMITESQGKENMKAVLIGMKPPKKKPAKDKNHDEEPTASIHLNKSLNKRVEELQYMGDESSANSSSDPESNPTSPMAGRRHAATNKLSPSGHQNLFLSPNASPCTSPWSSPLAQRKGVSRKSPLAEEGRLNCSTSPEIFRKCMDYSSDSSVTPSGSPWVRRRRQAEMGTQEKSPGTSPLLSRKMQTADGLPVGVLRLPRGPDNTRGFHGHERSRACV

[4] = molecular target: La-related protein 6 (Homo sapiens) (UniProt Q9BRS8); assay: Inhibition of LARP6 La module (unknown origin) binding with collagen 5' stem loop mRNA at > 2.5 uM by gel mobility shift assay; settings: dose microM >2.5
[5] = molecular target: La-related protein 6 (Homo sapiens) (UniProt Q9BRS8); assay: Inhibition of LARP6 La module (unknown origin) binding with collagen 5' stem loop mRNA assessed as decrease in La module dimer bound band intensity at 1 to 50 uM by gel mobility shift assay; settings: dose 1-50 µM
[6] = molecular target: La-related protein 6 (Homo sapiens) (UniProt Q9BRS8); assay: Inhibition of LARP6 La domain (unknown origin) binding with collagen 5' stem loop mRNA assessed as decrease in La domain bound band intensity at 1 to 3 uM by gel mobility shift assay; settings: dose 1-3 µM
[7] = molecular target: La-related protein 6 (Homo sapiens) (UniProt Q9BRS8); assay: Inhibition of LARP6 La domain (unknown origin) binding with collagen 5' stem loop mRNA at > 1 uM by gel mobility shift assay; settings: dose microM >1
Primary lung fibroblast [8] = assay: Inhibition of type 1 collagen alpha2 polypeptide secretion in human lung fibroblasts at 4 uM incubated for 18 hrs followed by addition of fresh medium and measured after 3 hrs by Western blot analysis; assay type: functional, tissue-based
[9] = Inhibition of type 1 collagen alpha2 polypeptide secretion in human lung fibroblasts incubated for 18 hrs followed by addition of fresh medium and measured after 3 hrs by Western blot analysis; assay type: functional, tissue-based; settings: Primary lung fibroblast
[10] = Cytotoxicity against human lung fibroblasts assessed as effect on cell viability; assay type: tissue-based; settings: primary lung fibroblast
Primary lung fibroblast [11] = assay: Inhibition of type 1 collagen secretion in human lung fibroblasts at 5 ug/ml incubated for 18 hrs followed by addition of fresh medium and measured after 3 hrs by Western blot analysis; assay type: functional, tissue-based; settings: dose 5.0 µg/ml

| SMILES | inhibition (Primary lung fibroblast [1]) | IC50 [2] [µM] | inhibition [3] | inhibition [4] | inhibition [5] | inhibition [6] | inhibition [7] | inhibition (Primary lung fibroblast [8]) | IC50 [9] [µM] | Activity [10] | inhibition (Primary lung fibroblast [11]) |
| --- | --- | --- | --- | --- | --- | --- | --- | --- | --- | --- | --- |
| CCCCCCCCCCCCCC(=O)N[C@H]1C[C@@H](C(N)=O)N(c2cc(N3CCN(C(=O)c4cc(C)cc(C)c4)CC3)ncn2)C1 | Active | 4.4 | Active | Active | Active | Active | Active | Active | 3.1 | Non-Toxic | – |
| CCCCCCCCCCCCCC(=O)N[C@H]1C[C@@H](C(N)=O)N(c2cc(N3CCN(C(=O)CCCc4ccccc4)CC3)ncn2)C1 | – | – | – | – | – | – | – | – | – | – | Active |
